What was measured:
mice [1] = assay: Nicotine antagonism test; assay type: in vivo; conditions: Mus musculus, ip, intraperitoneal, nicotine salicylate 2 mg./kg. thirty minutes later
Experimental: (§1) Sedative effects of 8-chloro-1-(hydroxymethyl)-6-phenyl-4H-s-triazolo[4,3-a][1,4]benzodiazepine (A) are shown by the following tests in mice:
Nicotine antagonism test: Mice in a group of 6 are injected with the test compound-8-chloro-1-(hydroxymethyl)-6phenyl-4H-s-triazolo[4,3-a][1,4]benzodiazepine. Thirty minutes later the mice including control (untreated) mice are injected with nicotine salicylate (2 mg./kg.). The control mice show overstimulation, i.e., (1) running convulsions followed by (2) tonic extensor fits; followed by (3) death. […] (ED50) was necessary.

mice [2] = assay: Chimney test; assay type: in vivo; conditions: Mus musculus, ip, intraperitoneal, failure to back up and out of vertical glass cylinder within 30 seconds, read-out: ED50, Chimney test (Ch)
Source text: as §1
The test determines the ability of mice to back up and out of a vertical glass cylinder within 30 seconds. At the effective dosage, 50% of the mice failed doing it.

mice [3] = assay: Pedestal test; assay type: in vivo; conditions: Mus musculus, ip, intraperitoneal, stay on the pedestal for more than 1 minute, read-out: ED50, Pedestal test (P)
Experimental: as §1
Pedestal test: The untreated mouse leaves the pedestal in less than a minute to climb back to the floor of the standard mouse box. Tranquilized mice will stay on the pedestal for more than 1 minute.

[4] = LD50 (lethal dose) in mice; conditions: mouse, in vivo
mice [5] = assay: Dish test; assay type: in vivo; conditions: Mus musculus, ip, intraperitoneal, remaining in the dish for more than 3 minutes, read-out: ED50, Dish test (D)
Experimental: as §1
Dish test: Mice in Petri dishes (10 cm. diameter, 5 cm. higher, partially embedded in wood shavings), climb out in a very short itme, when not treated. Mice remaining in the dish for more than 3 minutes indicates tranquilization. The ED50 equals the dose of test compound at which 50% of the mice remain in the dish. The ED50 (intraperitoneal administration) in this test was 2.0 mg./kg.

[6] = read-out: ED50, Nicotine antagonism (3) test (Ni): protection of 50% of the mice against death

OCc1nnc2n1-c1ccc(Cl)cc1C(c1ccccc1)=NC2 [A, 8-chloro-1-(hydroxymethyl)-6-phenyl-4H-s-triazolo[4,3-a][1,4]benzodiazepine]
ED50 (mice [1]; read-out: ED50, Nicotine antagonism (2) test: dosage protecting 50% of the mice against tonic extensor fits): 0.08 mg/kg
ED50 (mice [1]; [6]): 0.1 mg/kg
ED50 (mice [2]): 0.63 mg/kg
ED50 (mice [3]): 1.56 mg/kg
LD50 [4]: > 100 mg/kg
ED50 (mice [5]): 2 mg/kg

CCOCc1nnc2n1-c1ccc(Cl)cc1C(c1ccccc1)=NC2 [B, 8-Chloro-1-(ethoxymethyl)-6-phenyl-4H-s-triazolo[4,3-a][1,4]benzodiazepine]
ED50 (mice [1]; [6]): 0.6 mg/kg
ED50 (mice [2]): 1 mg/kg
ED50 (mice [3]): 1.4 mg/kg
LD50 [4]: > 100 mg/kg
ED50 (mice [5]): 1.6 mg/kg

OCc1nnc2n1-c1ccc(Cl)cc1C(c1ccccc1Cl)=NC2 [C, 8-Chloro-1-(hydroxymethyl)-6-(o-chlorophenyl)-4H-s-triazolo[4,3-a][1,4]benzodiazepine]
ED50 (mice [1]; [6]): 0.032 mg/kg
ED50 (mice [2]): 0.04 mg/kg
ED50 (mice [3]): 0.03 mg/kg
LD50 [4]: > 100 mg/kg
ED50 (mice [5]): 0.03 mg/kg

O=C(O)CCC(=O)OCc1nnc2n1-c1ccc(Cl)cc1C(c1ccccc1Cl)=NC2 [D, Hydrogensuccinate ester of 8-chloro-1-(hydroxymethyl)-6-(o-chlorophenyl)-4H-s-triazolo[4,3-a][1,4]benzodiazepine]
ED50 (mice [1]; [6]): 0.09 mg/kg
ED50 (mice [2]): 0.125 mg/kg
ED50 (mice [3]): 0.2 mg/kg
LD50 [4]: > 25 mg/kg
ED50 (mice [5]): 0.125 mg/kg

From patent US4902794A, “Triazolo-benzodiazepines” (The Upjohn Company, priority 1983, dated 1990)
